Reference: PMC10232370 (2023)
Where two headings read alike, the source gives them in different places. Blank lines part the entries; values can stand above or below the compound they belong to.

How the values were obtained:
[1] = system: pre-miR-155 (wild type) (RNA, miRNA) GGCUGUUAAUGCUAAUCGUGAUAGGGGUUUUUGCCUCCAACUGACUCCUACAUAUUAGCAUUAACAG; test: competition with 2AP-labelled RNA; conditions: RIBOTAC 5 µM, 2AP-labelled A bulge RNA 1 µM; unlabelled pre-miR-155 as competitor
[2] = system: pre-miR-155 +U49 mutant (A bulge to AU pair) (RNA, miRNA) GGCUGUUAAUGCUAAUCGUGAUAGGGGUUUUUGCCUCCAACUGACUCCUAUCAUAUUAGCAUUAACAG; test: competition with 2AP-labelled RNA; conditions: RIBOTAC 5 µM, 2AP-labelled A bulge RNA 1 µM; mutant does not compete
[3] = system: Cy5-labelled JUN IRES model (RNA, mRNA element) GCAGUAUAGGAAACUAACUGC; test: Cy5 fluorescence titration
[4] = system: JUN IRES fully paired control (A bulge to AU pair), Cy5 (RNA, mRNA element) GCAGUAUAGGAAACUAUACUGC; test: Cy5 fluorescence titration; conditions: no saturable binding
[5] = system: JUN IRES A bulge model with 2AP (5'UAU/3'A_A) (RNA, mRNA element, 2-aminopurine in place of the bulged A) GCAGUAUAGGAAACUAACUGC; test: 2-aminopurine fluorescence titration
[6] = system: Cy5-labelled MYC IRES 5'UUCG/3'ACCC 2x2 internal loop model (RNA, mRNA element) GGGGGCUUCGCCUCUGGCCCAGCCCUC; test: Cy5 fluorescence titration
[7] = system: MYC IRES fully paired control RNA (RNA, mRNA element) GGGGGCUUCGCCUCUGGCGAAGCCCUC; test: Cy5 fluorescence titration
[8] = system: JUN IRES 2AP control RNA (bulge converted to base pair) (RNA, mRNA element, 2-aminopurine (position not given)) GCAGUAUAGGAAACUAUACUGC; test: 2-aminopurine fluorescence titration
[9] = system: Cy5-5'GAU/3'C_A mimic (minimized pre-miR-155 A bulge) (RNA, mismatch bulge abasic) GUAAUGAUUACGAAAGUAACAUUGC; test: microscale thermophoresis
[10] = system: pre-miR-155 A bulge with 2-aminopurine (2AP) (RNA, mismatch bulge abasic, 2-aminopurine in place of the bulged A) GUAAUGAUUACGAAAGUAACAUUGC; test: 2-aminopurine fluorescence titration
[11] = system: Cy5-2DCS model with two A bulges (RNA, mismatch bulge abasic) GGGUUUAAUAGAUACGAAAGUACUAAUUGGAUCC; test: microscale thermophoresis
[12] = system: Cy5-2DCS model fully base paired (RNA, hairpin) GGGUUUAAUUAGAUACGAAAGUAUCUAAUUGGAUCC; test: microscale thermophoresis; conditions: no saturable binding
[13] = system: Cy5-5'GAU/3'CUA mimic (A bulge to AU pair) (RNA, hairpin) GUAAUGAUUACGAAAGUAAUCAUUGC; test: microscale thermophoresis; conditions: no saturable binding

Compound: CCOC(=O)C1=C(Nc2ccccc2)S/C(=C\c2ccc(OCCOCCOCCOCCNC(=O)CCNc3nc(Nc4ccc(C5=NCCN5)cc4)nc(Nc4ccc(C5=NCCN5)cc4)n3)c(O)c2)C1=O
Kd [3]: 0.5 ± 0.2 µM | binding [4]: no | EC50 [5]: 1.8 ± 0.5 µM

Compound: O=C(Nc1ccc(C2=NCCN2)cc1)Nc1cc(NC(=O)Nc2ccc(C3=NCCN3)cc2)cc(C(=O)O)c1
Kd [6]: 2.3 ± 1 µM | binding [7]: no

Compound: CCOC(=O)C1=C(Nc2ccccc2)S/C(=C\c2ccc(O)c(OCCOCCOCCOCCNC(=O)c3cc(NC(=O)Nc4ccc(C5=NCCN5)cc4)cc(NC(=O)Nc4ccc(C5=NCCN5)cc4)c3)c2)C1=O
Kd [6]: 0.9 ± 0.2 µM | binding ([7]; no saturable binding): no

Compound: CCOC(=O)C1=C(Nc2ccccc2)S/C(=C\c2ccc(OCCOCCOCCOCCNC(=O)c3cc(NC(=O)Nc4ccc(C5=NCCN5)cc4)cc(NC(=O)Nc4ccc(C5=NCCN5)cc4)c3)c(O)c2)C1=O
Kd [6]: 1.1 ± 0.1 µM | binding ([7]; no saturable binding): no

Compound: CNc1nc(Nc2ccc(C3=NCCN3)cc2)nc(Nc2ccc(C3=NCCN3)cc2)n1
Kd [3]: 3.2 ± 2 µM | EC50 [5]: 1.1 ± 0.2 µM | EC50 [8]: > 50 µM

Results, then the compound that gave them:

Kd [1]: 2.2 ± 0.9 µM | binding [2]: no
Compound: CCOC(=O)C1=C(Nc2ccccc2)S/C(=C\c2ccc(OCCOCCOCCOCCNC(=O)CCc3c(C)n(-c4c(C(C)C)cccc4C(C)C)c[n+]3-c3c(C(C)C)cccc3C(C)C)c(O)c2)C1=O

Kd [3]: 0.4 ± 0.1 µM | binding [4]: no | EC50 [5]: 3.5 ± 0.9 µM
Compound: CCOC(=O)C1=C(Nc2ccccc2)S/C(=C\c2ccc(O)c(OCCOCCOCCOCCNC(=O)CCNc3nc(Nc4ccc(C5=NCCN5)cc4)nc(Nc4ccc(C5=NCCN5)cc4)n3)c2)C1=O

Kd ([9]; similar affinity to C1): 1.1 ± 0.1 µM | binding ([10]; similar affinity to C1): yes
Compound: CCCNC(=O)CCc1c(C)n(-c2c(C(C)C)cccc2C(C)C)c[n+]1-c1c(C(C)C)cccc1C(C)C

Kd [11]: 1.2 ± 0.1 µM | binding [12]: no | Kd [9]: 0.8 ± 0.1 µM | binding [13]: no | Kd,app ([10]; apparent, error printed as 1.2): 3.9 ± 1 µM
Compound: CCCCCCCCCCCc1c(CCCCCCCCCCC)[n+](-c2c(C(C)C)cccc2C(C)C)cn1-c1c(C(C)C)cccc1C(C)C
